IC50 data for 18 compounds are collected here from US20240287063A1, “METHIONINE ADENOSYLTRANSFERASE 2A INHIBITOR” (NANJING CHIA TAI TIANQING PHARMACEUTICAL CO., LTD., priority 2021, published 2024).

One assay addresses T1, MAT2A enzyme (Homo sapiens, UniProt P31153).
T1 construct: purchased BPS 71401
The experiment in a line: Enzymatic testing method for MAT2A (Biomol Green, OD620). Format: biochemical. Conditions: score by IC50 for inhibiting MAT2A; read-out: MAT2A inhibition score. As to the method: • a) A 5×MAT2A test buffer (250 mM Tris-HCl, pH 8.0; 250 mM KCl; 75 mM MgCl2; 0.025% BSA; 0.05% Brij35; 1.5 mM EDTA) was first prepared and partially diluted to 1× for later use; • b) Preparation and addition of MAT2A enzyme (BPS, 71401): the MAT2A enzyme was prepared into 3.674 ng/L by using the 1×MAT2A test buffer (1.67×, final concentration 2.20 ng/L), a BioTek (MultiFlo FX) automatic liquid separator was used, 15 μL of 1.67×MAT2A enzyme solution was added to compound test wells and negative control wells respectively, and 15 μL of 1×MAT2A test buffer was added to blank control wells; • c) Preparation and addition of a compound: a compound to be tested was diluted with DMSO from 10 mM stock solution to 100 μM, a positive drug AGI-24512 was diluted under the same conditions, and the diluted compound and positive drug were automatically sprayed into each well by using a Tecan compound titrator (D300e) according to preset concentration gradients, where the spray volume was little and negligible. The concentration gradient was initially 1 μM, the dilution was implemented by ½ log, and a total of 8 gradients were set. Centrifugation at 2500 rpm for 30 s and incubation at 25° C. for 30 min were performed; • d) Preparation of ATP: 10 mM ATP (Sigma, A7699) was diluted with 1×MAT2A test buffer to 700 μM for later use; • e) Preparation and addition of a substrate and ATP mixture: 5×MAT2A test buffer, 3 μL/well; 750 μM L-methionine (Adamas, 01100469), 2.5 μL/well; 700 μM ATP, 2.5 μL/well; and double distilled water, 2 μL/well. A total amount of required mixture was prepared according to the number of test wells, and 10 μL of the mixture was added to each well by using the BioTek (MultiFlo FX) automatic liquid separator, followed by centrifugation at 2500 rpm for 30 s and reaction at 25° C. for 150 min; • f) Addition of Biomol Green detection reagent: 50 μL of Biomol Green (Enzo, BML-AK111) was added to each well by using the BioTek (MultiFlo FX) automatic liquid separator, followed by centrifugation at 2500 rpm for 30 s and incubation at 25° C. for 20 minutes; • g) After the reaction, OD620 values were read by using a Perkin Elmer (Envision 2105) multifunctional plate reader.
A formula for calculating an inhibition rate was as follows: […]
Wherein, • % Inhibition: inhibition rate % • ODsample: OD620 value in a sample well; • ODmin: representing a mean OD620 value of blank control wells without the enzyme or compound to be tested; • ODmax: representing a mean OD620 value of negative control wells with the enzyme and without the compound.
Then a dose-effect curve log(inhibitor) vs. response-Variable slope was fitted by usingGraphPad Prism 5 software to obtain an IC50 value of compound for MAT2A enzyme inhibition.

For a further assay, the system named is HCT116 MTAP −/− cells. Description: Cell testing method: HCT116 MTAP-/- cell proliferation inhibition (CellTiter-Glo, 120 h). Conditions: Homo sapiens, HCT-116; score by IC50 for inhibiting HCT116 MTAP−/− cells. In kind it is cell-based. As to the method:
HCT116 MTAP −/− cells (purchased from Horizon Discovery): human colorectal cancer cell lines with MTAP gene deletion were cultured in medium RPMI 1640+10% FBS (Fetal bovine serum). On day 0 of the experiment, the live cell density of the foregoing cells in logarithmic growth phase was adjusted to 5000 cells/ml, the cells were inoculated to a 96-well plate by an amount of 100 μl/well, and a blank group was set in parallel; and the inoculated cell plate was put into a 37° C., 5% CO2 incubator for overnight culture.
On day 1 of the experiment, the overnight cultured cell plate was taken out, the supernatant was discarded, 80 μl of serum-free RPMI 1640 medium was added to each well, and place the cells in an incubator for starvation cultivation for 4 h. The compound to be tested was dissolved in DMSO (dimethyl sulfoxide) to prepare a 10 mM compound stock solution. After starvation, the cell plate was taken out, and 80 μl of RPMI 1640+20% FBS medium was added to each well; the cell plate was placed on an automatic liquid dispenser D300e (Tecan), and a dosing program was set as follows: a maximum concentration of the compound to be tested was 30 μM, the compound was diluted with DMSO by a 3 times concentration gradient, there was a total of 10 concentrations, two duplicate wells were set for each concentration, and the DMSO final concentration in each well of the 96-well plate was 0.3%, v/v. The pre-prepared 10 mM stock solution of the compound to be tested was taken out, and the above dosing program was run for dosing. After the dosing was completed, the cell plate was placed in incubator and culture for 120 h.
On day 6 of the experiment, the cell plate was taken out, 50 μl of CellTiter-Go® (purchased from Promega) was added to each well, and fluorescence signal was measured on Envision (PerkinElmer) according to operation procedures in the manual.
A dose-effect curve: log(inhibitor) vs. response-Variable slope was fitted by using GraphPad Prism 5 software to obtain an IC50 value of the compound for inhibiting cell proliferation inhibition. A formula for calculating an inhibition rate was: […]
Wherein, • Signal value of tested compound: mean fluorescence signal of cells group+medium group+compound group; • Signal value of blank group: mean fluorescence signal of medium group; • Signal value of negative control group: mean fluorescence signal of cells group+medium group.

Molecules are shown by their SMILES. Counter-ions that a name gives are not always drawn.

T1 sequence (P31153 whole entry): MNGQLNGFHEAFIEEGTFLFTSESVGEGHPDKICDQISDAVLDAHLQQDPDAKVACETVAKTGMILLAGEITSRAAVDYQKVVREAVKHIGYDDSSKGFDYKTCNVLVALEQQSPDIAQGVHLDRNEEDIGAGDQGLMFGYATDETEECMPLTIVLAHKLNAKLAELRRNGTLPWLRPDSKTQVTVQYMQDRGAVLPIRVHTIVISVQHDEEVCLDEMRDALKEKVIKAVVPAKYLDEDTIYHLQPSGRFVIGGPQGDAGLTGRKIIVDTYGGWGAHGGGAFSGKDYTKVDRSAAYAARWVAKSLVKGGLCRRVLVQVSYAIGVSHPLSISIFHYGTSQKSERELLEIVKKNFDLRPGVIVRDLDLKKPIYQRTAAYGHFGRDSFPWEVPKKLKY

As for `Cn1nccc1-c1c2cc(-c3cn4ccc(C5CC5)cc4c(-c4ccc5c(c4)OC(F)(F)O5)c3=O)ccc2nn1C` [Example 7, 8-cyclopropyl-1-(2,2-difluoro-1,3-benzodioxol-5-yl)-3-[2-methyl-3-(2-methylpyrazol-3-yl)indazol-5-yl]quinolizin-2-one], the IC50 is < 50 nM at MAT2A enzyme and 400 to 1000 nM with HCT116 MTAP −/− cells.
Take `Cn1nc2ccc(-c3cn4ccc(C5CC5)cc4c(-c4ccc5c(c4)OC(F)(F)O5)c3=O)cc2c1N` [Example 6, 3-(3-amino-2-methyl-2H-indazol-5-yl)-8-cyclopropyl-1-(2,2-difluoro-1,3-benzodioxol-5-yl) quinolizin-2-one hydrochloride]: the IC50 is < 50 nM on MAT2A enzyme and 150 to 400 nM in the assay with HCT116 MTAP −/− cells.
For `O=c1c(-c2ccc(OC(F)F)cc2)cn2ccc(OCC(F)(F)F)nc2c1-c1ccc(OC(F)F)cc1` [Example 24, 7,9-bis[4-(difluoromethoxy)phenyl]-2-(2,2,2-trifluoroethoxy)-8H-pyrido[1,2-a]pyrimidin-8-one], in that order: < 50 nM and < 150 nM.
Turning to `O=c1c(-c2ccc(OC(F)F)cc2)cn2ccc(NCC(F)(F)F)nc2c1-c1ccc(OC(F)F)cc1` [Example 10, 7,9-bis[4-(difluoromethoxy)phenyl]-2-[(2,2,2-trifluoroethyl)amino]-8H-pyrido[1,2-a]pyrimidin-8-one], the IC50 at MAT2A enzyme is < 50 nM; in the assay with HCT116 MTAP −/− cells, < 150 nM.
`O=c1c(-c2ccc(OC(F)F)cc2)cn2ccc(C3CC3)nc2c1-c1ccc2c(c1)OC(F)(F)O2` [Example 27, 2-cyclopropyl-9-(2,2-difluoro-1,3-benzodioxol-5-yl)-7-[4-(difluoromethoxy)phenyl]-8H-pyrido[1,2-a]pyrimidin-8-one]: the IC50 at MAT2A enzyme is 50 to 200 nM; in the assay on HCT116 MTAP −/− cells it was > 1000 nM.
On to `CCOc1ccn2cc(-c3ccc(OC(F)F)cc3)c(=O)c(-c3ccc(OC(F)F)cc3)c2c1` [Example 4], for which the IC50 on MAT2A enzyme was < 50 nM; in the assay on HCT116 MTAP −/− cells it was < 150 nM.
For `Cn1cc2cc(-c3cn4ccc(C5CC5)nc4c(-c4ccc5c(c4)OC(F)(F)O5)c3=O)ccc2n1` [Example 26, 2-cyclopropyl-9-(2,2-difluoro-1,3-benzodioxol-5-yl)-7-(2-methyl-2H-indazol-5-yl)-8H-pyrido[1,2-a]pyrimidin-8-one], in that order: < 50 nM and < 150 nM.
Take `O=C1Cn2nc3ccc(-c4cn5ccc(NCC(F)(F)F)nc5c(-c5ccc(OC(F)F)cc5)c4=O)cc3c2C2(CC2)N1` [Example 16, 9′-{9-[4-(difluoromethoxy)phenyl]-8-oxo-2-[(2,2,2-trifluoroethyl)amino]pyrido[1,2-a]pyrimidin-7-yl}-2′,4′-dihydrospiro[cyclopropane-1,1′-pyrazino[1,2-b]indazol]-3′-one]: the IC50 at MAT2A enzyme is < 50 nM; in the assay with HCT116 MTAP −/− cells, 400 to 1000 nM.
For `O=c1c(-c2ccc3c(c2)OCO3)cn2ccc(C3CC3)nc2c1-c1ccc2c(c1)OC(F)(F)O2` [Example 32, 7-(2H-1,3-benzodioxol-5-yl)-2-cyclopropyl-9-(2,2-difluoro-1,3-benzodioxol-5-yl)pyrido[1,2-a]pyrimidin-8-one], in that order: < 50 nM and < 150 nM.
Consider `COc1ccc(-c2cn3ccc(NCC(F)(F)F)nc3c(-c3ccc(OC)cc3)c2=O)cc1` [Example 11, 7,9-bis[(4-methoxyphenyl)]-2-[(2,2,2-trifluoroethyl)amino]-8H-pyrido[1,2-a]pyrimidin-8-one], for which the IC50 at MAT2A enzyme was < 50 nM; in the assay with HCT116 MTAP −/− cells, < 150 nM.
As for `O=c1c(-c2ccc3nn4c(c3c2)CNC2(CC2)C4)cn2ccc(C3CC3)nc2c1-c1ccc(OC(F)F)cc1` [Example 39, 2-cyclopropyl-9-(4-(difluoromethoxy)phenyl)-7-(1′,2′-dihydro-4′H-spiro[cyclopropane-1,3′-pyrazino[1,2-b]indazol]-9′-yl)-8H-pyrido[1,2-a]pyrimidin-8-one], the IC50 was < 50 nM on MAT2A enzyme and < 150 nM in the assay on HCT116 MTAP −/− cells.
In the case of `CN1C(=O)c2c3cc(-c4cn5ccc(NCC(F)(F)F)nc5c(-c5ccc(OC(F)F)cc5)c4=O)ccc3nn2CC12CC2` [Example 15, 9′-{9-[4-(difluoromethoxy)phenyl]-8-oxo-2-[(2,2,2-trifluoroethyl)amino]pyrido[1,2-a]pyrimidin-7-yl}-2′-methyl-4′H-spiro[cyclopropane-1,3′-pyrazino[1,2-b]indazol]-1′-one], the IC50 was < 50 nM at MAT2A enzyme and 400 to 1000 nM in the assay with HCT116 MTAP −/− cells.
Take `Cc1cn2cc(-c3ccc(OC(F)F)cc3)c(=O)c(-c3ccc(OC(F)F)cc3)c2nc1NCC(F)(F)F` [Example 42, 7,9-bis(4-(difluoromethoxy)phenyl)-3-methyl-2-((2,2,2-trifluoroethyl)amino)-8H-pyrido[1,2-a]pyrimidin-8-one]: the IC50 on MAT2A enzyme was < 50 nM; in the assay on HCT116 MTAP −/− cells it was 150 to 400 nM.
For the compound `O=c1c(-c2ccc3c(c2)OCO3)cn2ccc(C3CC3)nc2c1-c1ccc2c(c1)OCO2` [Example 28, 7,9-bis(2H-1,3-benzodioxol-5-yl)-2-cyclopropyl-8H-pyrido[1,2-a]pyrimidin-8-one], the IC50 is < 50 nM at MAT2A enzyme and < 150 nM in the assay on HCT116 MTAP −/− cells.
As to `Cn1cc2cc(-c3cn4ccc(NCC(F)(F)F)nc4c(-c4ccc(OC(F)F)cc4)c3=O)ccc2n1` [Example 9, 9-[4-(difluoromethoxy)phenyl]-7-(2-methyl-2H-indazol-5-yl)-2-[(2,2,2-trifluoroethyl)amino]-8H-pyrido[1,2-a]pyrimidin-8-one], the IC50 is < 50 nM on MAT2A enzyme and < 150 nM with HCT116 MTAP −/− cells.
For `Cc1cc(NCC(F)(F)F)nc2c(-c3ccc(OC(F)F)cc3)c(=O)c(-c3ccc(OC(F)F)cc3)cn12` [Example 41, 7,9-bis(4-(difluoromethoxy)phenyl)-4-methyl-2-((2,2,2-trifluoroethyl)amino)-8H-pyrido[1,2-a]pyrimidin-8-one] the same measures were < 50 nM and < 150 nM.
As for `Cn1cc2cc(-c3cn4ccc(NCC(F)(F)F)nc4c(-c4ccc5nn(C)cc5c4)c3=O)ccc2n1` [Example 12, 7,9-bis[(2-methyl-2H-indazol-5-yl)]-2-[(2,2,2-trifluoroethyl)amino]-8H-pyrido[1,2-a]pyrimidin-8-one], the results for the IC50 at MAT2A enzyme and with HCT116 MTAP −/− cells were < 50 nM and > 1000 nM, respectively.
In the case of `O=c1c(-c2ccc(OC(F)F)cc2)cn2ccc(C3CC3)cc2c1-c1ccc(OC(F)F)cc1` [Example 3, 8-cyclopropyl-1,3-bis(4-(difluoromethoxy)phenyl)-2H-quinolizin-2-one], the IC50 on MAT2A enzyme is < 50 nM; in the assay with HCT116 MTAP −/− cells, < 150 nM.
